In patent publication US10519162B2, “6,7-dihydropyrazolo[1,5-α]pyrazin-4(5H)-one compounds and their use as negative allosteric modulators of mGluR2 receptors” (Janssen Pharmaceutica NV, priority 2014, dated 2019):

Experiments:
[1] = target: T1, human mGlu2 receptor (Homo sapiens, UniProt Q14416); assay: [35S]GTPγS binding assay (mGluR2 negative allosteric modulation, glutamate ~EC80 60 μM); type: biochemical; conditions: for Emax: read-out: GTPγS-hmGluR2 anGT Emax; for IC50: membranes from CHO cells transfected with human mGlu2 receptor, glutamate ~EC80 (60 μM), pIC50 = −log IC50 (M), read-out: GTPγS-hmGluR2 anGT pIC50 (converted)
T1 construct: expressed in transfected cells; host or cells: CHO cells
T1 sequence (Q14416 19-872): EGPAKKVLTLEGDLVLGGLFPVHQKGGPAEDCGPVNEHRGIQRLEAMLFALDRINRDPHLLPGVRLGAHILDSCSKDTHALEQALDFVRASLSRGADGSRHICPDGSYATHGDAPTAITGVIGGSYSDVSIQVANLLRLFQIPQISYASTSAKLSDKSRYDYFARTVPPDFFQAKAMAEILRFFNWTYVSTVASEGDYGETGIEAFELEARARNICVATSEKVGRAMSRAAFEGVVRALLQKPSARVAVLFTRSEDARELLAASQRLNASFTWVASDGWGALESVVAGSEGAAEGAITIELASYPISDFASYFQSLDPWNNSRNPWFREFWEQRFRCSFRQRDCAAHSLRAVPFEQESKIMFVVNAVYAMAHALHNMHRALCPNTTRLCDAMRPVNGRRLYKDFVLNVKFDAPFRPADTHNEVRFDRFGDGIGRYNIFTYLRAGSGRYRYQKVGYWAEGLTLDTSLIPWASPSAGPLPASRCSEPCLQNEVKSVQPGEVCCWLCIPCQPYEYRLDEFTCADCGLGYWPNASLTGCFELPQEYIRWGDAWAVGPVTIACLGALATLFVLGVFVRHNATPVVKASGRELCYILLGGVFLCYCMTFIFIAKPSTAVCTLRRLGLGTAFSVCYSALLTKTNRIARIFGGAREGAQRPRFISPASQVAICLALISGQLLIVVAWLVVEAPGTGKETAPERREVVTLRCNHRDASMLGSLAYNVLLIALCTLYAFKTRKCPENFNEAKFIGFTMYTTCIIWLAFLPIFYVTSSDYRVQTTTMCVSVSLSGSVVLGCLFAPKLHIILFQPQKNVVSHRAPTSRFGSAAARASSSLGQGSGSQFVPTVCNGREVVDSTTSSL
Description: 1) [^35S]GTPγS Binding Assay
[^35S]GTPγS Binding Assay
Total reaction volume was 200 μl. […] Membrane-bound radioactivity was counted in a Topcount.

[2] = tested on: rats; assay: Reversal of the effect of the mGluR2 PAM JNJ-42153605-induced inhibition of scopolamine-induced hyperlocomotion (SCOP JNJ-42153605); type: in vivo, rat; conditions: for ED50: Rattus norvegicus, PO (oral route), rats, reversal criterion total distance >1500 cm
Description: 2) Reversal of the Effect of the mGluR2 PAM JNJ-42153605-Induced Inhibition of Scopolamine-Induced Hyperlocomotion Apparatus
Motor activity was measured in microprocessor-based motor activity arenas (closed gray PVC cylinders with a height of 39 cm and a diameter of 31 cm). Each arena was placed on an infrared LED (8×8 LEDs) lit box (white PVC squared box; 40×40 cm^2; height 12.5 cm. An infrared-sensitive tube camera and a white light source were mounted to the ceiling above the observation chamber to track the animal. The total distance traveled (cm) was recorded and analyzed using the Noldus Ethovision XT Video Tracking System (Version 7.0.418; Noldus, Wageningen, The Netherlands). The intensity of the light within the activity cages (measured in the centre at the level of the floor) ranged between 4 and 8 LUX.
The rats were pretreated with test compound or vehicle at 60 min before the start of the activity recordings and placed into individual cages. The rats were challenged with JNJ-42153605 (3-(cyclopropylmethyl)-7-(4-phenylpiperidin-1-yl)-8-(trifluoromethyl)[1,2,4]triazolo[4,3-a]pyridine; WO2010/130424; Cid et al. J. Med. Chem. 2012, 55, 8770-8789) (20 mg/kg, i.v.) 30 min before the start of the activity recording combined with scopolamine (0.16 mg/kg, i.v.) just before the start of the activity measurements. Immediately after the injection of scopolamine, the rats were placed into the activity monitors and total distance travelled over the first 30 min was measured.
Solvent-Pretreated Control Rats.
Animals receiving the combination of JNJ-42153605 and scopolamine (n=433) almost always travelled a distance of less than 1500 cm (<1500 cm) (only 2.5% of the control rats travelled a distance of more than 1500 cm (>1500 cm)). On the other hand, animals challenged with scopolamine alone (n=215) always travelled a total distance of more than 1500 cm (>1500 cm) and almost always (in 95.8% of the rats) a distance of more than 4400 cm (>4400 cm). […] For reversal of the inhibitory effect of JNJ-42153605 on the scopolamine-induced hyperlocomotion, the following all-or-none criteria were adopted: (1) reversal: total distance >1500 cm.

[3] = maximal % inhibition relative to the control glutamate response (EC80 glutamate)
[4] = historical solvent-pretreated control rats, first 30 min

Row | SMILES | Emax [1, 3] [%] | IC50 [1] [M] | ED50 [2] [mg/kg] | melting point [°C] | GTPγS-hmGluR2 anGT Emax [1, 3] [%] | Rats with total distance >1500 cm (%) [2, 4] [%] | Rats with total distance >4400 cm (%) [2, 4] [%] | Total distance travelled, median (cm) ([2]; historical solvent-pretreated control rats, first 30 min, scopolamine 0.16 mg/kg i.v., JNJ-42153605 20 mg/kg i.v.)
1 | Cc1ccnc(N)c1C(=O)Nc1cnn2c1C(=O)N(c1ccc(C(F)(F)F)cc1)C[C@@H]2C (racemic) [Co. No. 192] | 110 | 2.69e-08 | > 0.63 | 177.39 | – | – | – | –
2 | COc1ccnc(N)c1C(=O)Nc1cnn2c1C(=O)N(c1ccc(C(F)(F)F)cc1)C[C@@H]2C (racemic) [Co. No. 193] | 106 | 2.88e-09 | > 0.63 | 248.21 | – | – | – | –
3 | C[C@H]1CN(c2ccc(C(F)(F)F)cc2)C(=O)c2c(NC(=O)c3cccnc3NCCO)cnn21 (racemic) [Co. No. 213] | 103 | 1.02e-09 | 1.12 | 168.55 | – | – | – | –
4 | C[C@H]1CN(c2ccc(C(F)(F)F)c(Cl)c2)C(=O)c2c(NC(=O)c3cccnc3NCCO)cnn21 (racemic) [Co. No. 214] | 112 | 5.25e-10 | 0.32 | – | – | – | – | –
5 | C[C@H]1CN(c2ccc(C(F)(F)F)c(Cl)c2)C(=O)c2c(NC(=O)c3ccccc3)cnn21 [Co. No. 2] | 105 | 1.32e-09 | > 2.5 | 161.54 | – | – | – | –
6 | C[C@H]1CN(c2ccc(Cl)c(Cl)c2)C(=O)c2c(NC(=O)c3ccc(N)nc3)cnn21 [Co. No. 3] | 110 | 1.62e-09 | 0.32 | 189.94 | – | – | – | –
7 | C[C@H]1CN(c2ccc(C(F)F)c(Cl)c2)C(=O)c2c(NC(=O)c3ccc(N)nc3)cnn21 [Co. No. 6] | 114 | – | > 2.5 | 177 | – | – | – | –
8 | C[C@H]1CN(c2ccc(C(F)(F)F)cc2)C(=O)c2c(NC(=O)c3ccccc3F)cnn21 [Co. No. 11] | 104 | 2.57e-09 | > 2.5 | 241.79 | – | – | – | –
9 | C[C@H]1CN(c2ccc(C(F)(F)F)cc2)C(=O)c2c(NC(=O)c3cccc(F)c3)cnn21 [Co. No. 14] | 102 | 2.75e-09 | > 2.5 | 161.84 | – | – | – | –
10 | C[C@H]1CN(c2ccc(C(F)(F)F)cc2)C(=O)c2c(NC(=O)c3nccs3)cnn21 [Co. No. 15] | 111 | 3.24e-09 | > 2.5 | 213.94 | – | – | – | –
11 | C[C@H]1CN(c2ccc(C(F)(F)F)cc2)C(=O)c2c(NC(=O)c3ccccc3)cnn21 [Co. No. 16] | 108 | 3.39e-09 | > 2.5 | 201.48 | – | – | – | –
12 | C[C@H]1CN(c2ccc(Cl)c(OC(F)F)c2)C(=O)c2c(NC(=O)c3ccc(N)nc3)cnn21 [Co. No. 18] | 117 | 4.27e-09 | > 2.5 | – | – | – | – | –
13 | COc1cccc(C(=O)Nc2cnn3c2C(=O)N(c2ccc(C(F)(F)F)cc2)C[C@@H]3C)n1 [Co. No. 20] | – | 4.57e-09 | > 2.5 | 190 | 103 | – | – | –
14 | COCc1cc(N2C[C@H](C)n3ncc(NC(=O)c4ccc(N)nc4)c3C2=O)ccc1C(F)(F)F [Co. No. 22] | 111 | 4.79e-09 | > 2.5 | 213.77 | – | – | – | –
15 | C[C@H]1CN(c2ccc(C(F)(F)F)c(C#N)c2)C(=O)c2c(NC(=O)c3ccc(N)nc3)cnn21 [Co. No. 26] | 106 | 6.46e-09 | > 2.5 | 216.96 | – | – | – | –
16 | COc1cccc(C(=O)Nc2cnn3c2C(=O)N(c2ccc(C(F)(F)F)cc2)C[C@@H]3C)c1 [Co. No. 27] | 106 | 6.61e-09 | > 2.5 | 136.91 | – | – | – | –
17 | Cc1cc(C(=O)Nc2cnn3c2C(=O)N(c2ccc(C(F)(F)F)cc2)C[C@@H]3C)ccn1 [Co. No. 29, 2-Methyl-N-[(7S)-7-methyl-4-oxo-5-[4-(trifluoromethyl)phenyl]-6,7-dihydropyrazolo[1,5-a]pyrazin-3-yl]pyridine-4-carboxamide] | 100 | 6.92e-09 | > 2.5 | 145.1 | – | – | – | –
18 | COCc1cccc(C(=O)Nc2cnn3c2C(=O)N(c2ccc(C(F)(F)F)cc2)C[C@@H]3C)c1 [Co. No. 30] | 113 | 7.08e-09 | > 2.5 | 160.03 | – | – | – | –

Row | SMILES | Emax [1, 3] [%] | IC50 [1] [M] | ED50 [2] [mg/kg] | melting point [°C] | GTPγS-hmGluR2 anGT Emax [1, 3] [%] | Rats with total distance >1500 cm (%) [2, 4] [%] | Rats with total distance >4400 cm (%) [2, 4] [%] | Total distance travelled, median (cm) ([2]; historical solvent-pretreated control rats, first 30 min, scopolamine 0.16 mg/kg i.v., JNJ-42153605 20 mg/kg i.v.)
19 | COc1cncc(C(=O)Nc2cnn3c2C(=O)N(c2ccc(C(F)(F)F)cc2)C[C@@H]3C)c1 [Co. No. 32] | 112 | 7.41e-09 | 1.26 | 174.59 | – | – | – | –
20 | Cc1cccc(C(=O)Nc2cnn3c2C(=O)N(c2ccc(C(F)(F)F)cc2)C[C@@H]3C)n1 [Co. No. 34] | 116 | 8.32e-09 | > 2.5 | 214.97 | – | – | – | –
21 | C[C@H]1CN(c2ccc(C(F)(F)F)cc2)C(=O)c2c(NC(=O)c3cnccn3)cnn21 [Co. No. 35] | 112 | 8.13e-09 | 1.26 | 219.91 | – | – | – | –
22 | C[C@H]1CN(c2ccc(Cl)cc2)C(=O)c2c(NC(=O)c3ccc(N)nc3)cnn21 [Co. No. 36] | 110 | 8.91e-09 | 0.5 | – | – | – | – | –
23 | COc1cc(N2C[C@H](C)n3ncc(NC(=O)c4ccc(N)nc4)c3C2=O)ccc1C(F)(F)F [Co. No. 38] | 109 | 9.12e-09 | > 2.5 | 179.66 | – | – | – | –
24 | COc1cnc(C(=O)Nc2cnn3c2C(=O)N(c2ccc(C(F)(F)F)cc2)C[C@@H]3C)cn1 [Co. No. 39] | 111 | 9.33e-09 | > 2.5 | 191.33 | – | – | – | –
25 | C[C@H]1CN(c2ccc(C(F)(F)F)cc2)C(=O)c2c(NC(=O)c3cnc(N)cn3)cnn21 [Co. No. 45] | 106 | 1.2e-08 | > 2.5 | 287.45 | – | – | – | –
26 | Cc1cncc(C(=O)Nc2cnn3c2C(=O)N(c2ccc(C(F)(F)F)cc2)C[C@@H]3C)c1 [Co. No. 99] | 114 | 3.98e-09 | > 2.5 | 165.21 | – | – | – | –
27 | C[C@H]1CN(c2ccc(Cl)c(Cl)c2)C(=O)c2c(NC(=O)c3ccccn3)cnn21 [Co. No. 105] | 109 | 2.63e-09 | > 0.63 | 155.04 | – | – | – | –
28 | Cc1cc(N2C[C@H](C)n3ncc(NC(=O)c4cncc(F)c4)c3C2=O)ccc1C(F)(F)F [Co. No. 107] | 108 | 2.69e-09 | > 0.63 | 155.04 | – | – | – | –
29 | Cc1cncc(C(=O)Nc2cnn3c2C(=O)N(c2ccc(Cl)c(Cl)c2)C[C@@H]3C)c1 [Co. No. 108] | 109 | 9.77e-10 | > 0.63 | 185.71 | – | – | – | –
30 | C[C@H]1CN(c2ccc(Cl)c(Cl)c2)C(=O)c2c(NC(=O)c3cncc(F)c3)cnn21 [Co. No. 109] | 105 | 1.38e-09 | > 0.63 | 128.16 | – | – | – | –
31 | Cc1cc(N2C[C@H](C)n3ncc(NC(=O)c4ccccn4)c3C2=O)ccc1C(F)(F)F [Co. No. 110] | 107 | 2.34e-09 | > 0.63 | 217.95 | – | – | – | –
32 | COc1cc(N2C[C@H](C)n3ncc(NC(=O)c4ccccn4)c3C2=O)ccc1C(F)(F)F [Co. No. 111] | 105 | 1.02e-08 | > 0.63 | 217.95 | – | – | – | –
33 | Cc1cc(C(=O)Nc2cnn3c2C(=O)N(c2ccc(C(F)(F)F)c(C)c2)C[C@@H]3C)ccn1 [Co. No. 112] | 106 | 4.68e-09 | > 0.63 | 128.97 | – | – | – | –
34 | Cc1cc(N2C[C@H](C)n3ncc(NC(=O)c4cnccn4)c3C2=O)ccc1C(F)(F)F [Co. No. 114] | 106 | 2.51e-09 | > 0.63 | 225.49 | – | – | – | –
35 | Cc1cnc(N)c(C(=O)Nc2cnn3c2C(=O)N(c2ccc(Cl)cc2)C[C@@H]3C)c1 [Co. No. 201] | 108 | 4.9e-09 | > 0.63 | – | – | – | – | –
36 | CN1[C@@H]2C[C@@H](OC(=O)[C@H](CO)c3ccccc3)C[C@H]1[C@@H]1O[C@@H]12 [Scopolamine, scopolamine, reference compound] | – | – | – | – | – | 100 | 95.8 | 7246
